± gives the standard deviation of the averaged measurements.
Key:
[1] = compound: COc1ccc(-c2cc3c(C)nc(N)nc3n([C@H]3CC[C@H](OCCO)CC3)c2=O)cn1; test: surviving fraction relative to DMSO-only wells; higher = less growth inhibition; settings: exposure time: 5 days
Procedure, shortened: (§1)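 A line counted only if its three screens reached replicate Pearson r >0.7 and median Z' >0.3. Tumour cells in log phase were seeded at 250–500 per well in 384-well plates and, after 24 hours, kept in continuous contact with inhibitors at 0.5, 1, 5, 10, 50, 100, 500 and 1000 nM for five days. Surviving fraction was taken from CellTiter-Glo luminescence relative to the median of DMSO-only wells.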

IMATINIB = compound: Cc1ccc(NC(=O)c2ccc(CN3CCN(C)CC3)cc2)cc1Nc1nccc(-c2cccnc2)n1 [IMATINIB]; test: as above; settings: exposure time: 5 days
Procedure, shortened: as §1

ZR751 BREAST
surviving fraction ([1]; 0.5 nM): 1.13 ± 0.17
surviving fraction ([1]; 1 nM): 1.04 ± 0.15
surviving fraction ([1]; 5 nM): 0.783 ± 0.13
surviving fraction ([1]; 10 nM): 0.708 ± 0.11
surviving fraction ([1]; 50 nM): 0.328 ± 0.039
surviving fraction ([1]; 100 nM): 0.182 ± 0.038
surviving fraction ([1]; 500 nM): 0.091 ± 0.013
surviving fraction ([1]; 1000 nM): 0.0693 ± 0.012
surviving fraction (IMATINIB; 0.5 nM): 1.23 ± 0.15
surviving fraction (IMATINIB; 1 nM): 1.15 ± 0.14
surviving fraction (IMATINIB; 5 nM): 1.05 ± 0.1
surviving fraction (IMATINIB; 10 nM): 1.17 ± 0.23
surviving fraction (IMATINIB; 50 nM): 1.16 ± 0.11
surviving fraction (IMATINIB; 100 nM): 1.11 ± 0.063
surviving fraction (IMATINIB; 500 nM): 1.13 ± 0.065
surviving fraction (IMATINIB; 1000 nM): 1.07 ± 0.14
